Results on 11 compounds are retold here after US10287255B2, “Compounds as histone deacetylase 6 inhibitors and pharmaceutical compositions comprising the same” (CHONG KUN DANG PHARMACEUTICAL CORP., priority 2014, dated 2019).

For test [1], the target named is T1, human recombinant HDAC6 (Homo sapiens, UniProt Q9UBN7).
T1 construct: purchased Calbiochem 382180
T1 sequence (Q9UBN7 1-1215): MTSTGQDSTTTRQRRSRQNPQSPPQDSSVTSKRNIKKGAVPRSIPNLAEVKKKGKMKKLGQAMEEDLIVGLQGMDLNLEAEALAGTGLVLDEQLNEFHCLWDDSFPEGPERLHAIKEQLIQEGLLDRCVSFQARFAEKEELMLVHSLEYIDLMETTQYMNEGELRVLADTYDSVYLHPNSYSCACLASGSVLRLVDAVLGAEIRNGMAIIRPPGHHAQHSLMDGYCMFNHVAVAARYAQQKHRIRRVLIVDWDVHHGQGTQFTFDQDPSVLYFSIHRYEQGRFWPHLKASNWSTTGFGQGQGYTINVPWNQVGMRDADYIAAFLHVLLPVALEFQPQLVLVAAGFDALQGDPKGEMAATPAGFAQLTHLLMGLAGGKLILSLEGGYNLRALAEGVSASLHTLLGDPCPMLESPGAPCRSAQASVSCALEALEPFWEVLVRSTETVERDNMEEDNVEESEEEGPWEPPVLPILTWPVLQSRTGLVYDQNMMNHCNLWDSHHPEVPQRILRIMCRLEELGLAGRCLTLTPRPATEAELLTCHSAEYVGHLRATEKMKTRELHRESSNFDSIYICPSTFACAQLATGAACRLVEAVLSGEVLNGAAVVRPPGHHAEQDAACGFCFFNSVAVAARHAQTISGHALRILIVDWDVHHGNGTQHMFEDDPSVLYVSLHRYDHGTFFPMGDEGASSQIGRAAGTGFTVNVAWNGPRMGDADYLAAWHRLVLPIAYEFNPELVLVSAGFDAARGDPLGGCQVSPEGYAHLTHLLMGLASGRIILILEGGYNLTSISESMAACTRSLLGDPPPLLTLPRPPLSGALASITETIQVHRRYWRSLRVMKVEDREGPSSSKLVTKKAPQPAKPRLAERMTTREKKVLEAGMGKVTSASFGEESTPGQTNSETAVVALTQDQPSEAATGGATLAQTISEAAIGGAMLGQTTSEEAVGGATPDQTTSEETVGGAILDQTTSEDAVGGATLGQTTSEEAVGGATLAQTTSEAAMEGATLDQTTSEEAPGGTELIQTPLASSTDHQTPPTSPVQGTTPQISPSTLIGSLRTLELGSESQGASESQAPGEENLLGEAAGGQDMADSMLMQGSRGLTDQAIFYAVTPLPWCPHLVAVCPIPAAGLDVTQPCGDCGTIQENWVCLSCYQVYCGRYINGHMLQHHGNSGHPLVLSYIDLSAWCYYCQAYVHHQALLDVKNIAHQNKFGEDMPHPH
In words: HDAC6 enzyme activity inhibition assay (in vitro, fluorimetric). As to conditions: for HDAC6 selectivity (fold): HDAC6 selectivity over HDAC1; for IC50: human recombinant HDAC6, fluorimetric kit, same protocol as HDAC1. The class given is biochemical. On the procedure:
(§1) In order to examine the HDAC6 selectivity of the compounds of formula 1 of the present invention by HDAC1 and HDAC6 enzymatic activity inhibition assays, an experiment was performed using a conventional substance as a control.
(§2) HDAC enzyme activity was measured using a HDAC Fluorimetric Drug Discovery Kit (BML-AK511, 516, Enzo Life Science). For the HDAC1 enzyme activity test, human recombinant HDAC1 (BML-SE456) was used as an enzyme source, and Fluor de Lys®-“SIRT1 (BNL-KI177) was used as a substrate. A 5-fold dilution of the compound was seeded into a 96-well plate, and then 0.3 μg of the enzyme and 10 μM of the substrate were added to each well of the plate and allowed to react at 30° C. for 60 minutes. Then, Fluor de Lys® Developer II (BML-KI176) was added thereto and allowed to react for 30 minutes, after which the fluorescence value (Ex 360, Em 460) was measured using a multi-plate reader (Flexstation 3, Molecular Device). The HDAC6 enzyme was tested using human recombinant HDAC6 (382180) (Calbiochem) according to the same protocol as the HDAC1 enzyme activity test method. Based on the resulting values, each IC50 value was calculated using GraphPad Prism4.0 program.

Test [2] has as its target T2, human recombinant HDAC1 (Homo sapiens, UniProt Q13547).
T2 construct: purchased Enzo Life Science BML-SE456
In words: HDAC1 enzyme activity inhibition assay (in vitro, fluorimetric). The class given is biochemical. The settings on record: human recombinant HDAC1, fluorimetric kit, 30° C. 60 minutes. As for the experimental part:
as §1, §2

T2 sequence (Q13547 whole entry): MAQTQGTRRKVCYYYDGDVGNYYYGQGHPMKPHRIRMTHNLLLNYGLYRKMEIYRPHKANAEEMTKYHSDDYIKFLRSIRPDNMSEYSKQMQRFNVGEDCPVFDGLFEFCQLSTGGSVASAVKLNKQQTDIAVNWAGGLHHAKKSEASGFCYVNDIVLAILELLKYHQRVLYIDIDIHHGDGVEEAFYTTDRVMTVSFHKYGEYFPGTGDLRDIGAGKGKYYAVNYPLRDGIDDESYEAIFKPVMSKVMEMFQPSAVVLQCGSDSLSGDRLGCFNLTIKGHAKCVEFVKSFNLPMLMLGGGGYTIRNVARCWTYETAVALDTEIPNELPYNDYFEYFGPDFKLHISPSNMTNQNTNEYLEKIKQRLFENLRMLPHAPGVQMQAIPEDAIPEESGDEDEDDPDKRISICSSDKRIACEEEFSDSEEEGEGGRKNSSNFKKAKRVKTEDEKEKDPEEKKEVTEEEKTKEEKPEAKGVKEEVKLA

`CC(C)CC(=O)N1[C@H](C)CN(Cc2ccc(C(=O)NO)cc2)C[C@@H]1C` [Compound 297, 4-(((3R,5S)-3,5-dimethyl-4-(3-methylbutanoyl)piperazin-1-yl)methyl)-N-hydroxybenzamide]: in test [1], the “HDAC6 selectivity (fold)” value turned out to be 62 fold and the IC50 (usually the concentration needed to halve the response being measured) is 90 nM. For the same compound, the IC50 in test [2] amounted to 5600 nM.

For the compound `C[C@@H]1CN(S(=O)(=O)c2ccc(Cl)cc2)C[C@H](C)N1Cc1ccc(C(=O)NO)cc1` [Compound 109, 4-(((2S,6R)-4-((4-chlorophenyl)sulfonyl)-2,6-dimethylpiperazin-1-yl)methyl)-N-hydroxybenzamide], in test [1], the “HDAC6 selectivity (fold)” value came out at 67 fold and the IC50 came out at 75 nM. Further, in test [2], the IC50 was 5100 nM.

For `Cc1ccccc1NC(=O)N1[C@H](C)CN(Cc2ccc(C(=O)NO)cc2)C[C@@H]1C` [Compound 160, (2S,6R)-4-(4-(hydroxycarbamoyl)benzyl)-2,6-dimethyl-N-o-tolylpiperazine-1-carboxamide], in test [1], the “HDAC6 selectivity (fold)” value is 177 fold and the IC50 amounted to 50 nM. Also, in test [2], the 50% inhibitory concentration (IC50) is 8800 nM.

For `C[C@@H]1CN(Cc2ccc(C(=O)NO)cc2)C[C@H](C)N1Cc1ccc(CN2CCCC2)cc1` [Compound 466, 4-(((3R,5S)-3,5-dimethyl-4-(4-(pyrrolidin-1-ylmethyl)benzyl)piperazin-1-yl)methyl)-N-hydroxybenzamide], the “HDAC6 selectivity (fold)” value in test [1] was 35 fold. Further, the IC50 in test [1] came out at 19 nM; in test [2] it was 700 nM.

For `C[C@@H]1CN(Cc2ccc(C(=O)NO)cc2)C[C@H](C)N1C(=O)c1cnccn1` [Compound 404, 4-(((3R,5S)-3,5-dimethyl-4-(pyrazine-2-carbonyl)piperazin-1-yl)methyl)-N-hydroxybenzamide], in test [1], the “HDAC6 selectivity (fold)” value came to 30 fold and the IC50 turned out to be 182 nM. Besides, the 50% inhibitory concentration (IC50) in test [2] was determined as 5500 nM.

In the case of `C[C@@H]1CN(Cc2ccc(-n3cnnc3)cc2)C[C@H](C)N1Cc1ccc(C(=O)NO)cc1` [Compound 304, 4-(((2S,6R)-4-(4-(4H-1,2,4-triazol-4-yl)benzyl)-2,6-dimethylpiperazin-1-yl)methyl)-N-hydroxybenzamide], in test [1], the “HDAC6 selectivity (fold)” value is 8 fold and the IC50 was determined as 280 nM. Further, the IC50 in test [2] came out at 2300 nM.

Consider `C[C@@H]1CN(Cc2cccc(-c3ccoc3)c2)C[C@H](C)N1Cc1ccc(C(=O)NO)cc1` [Compound 396, 4-(((2S,6R)-4-(3-(furan-3-yl)benzyl)-2,6-dimethylpiperazin-1-yl)methyl)-N-hydroxybenzamide], for which, in test [1], the “HDAC6 selectivity (fold)” value is reported as 4 fold and the IC50 was 406 nM. Moreover, in test [2], the IC50 came out at 1700 nM.

Take `CC(C)=CCN1[C@H](C)CN(Cc2ccc(C(=O)NO)cc2)C[C@@H]1C` [Compound 272, 4-(((3R,5S)-3,5-dimethyl-4-(3-methylbut-2-en-1-yl)piperazin-1-yl)methyl)-N-hydroxybenzamide]: in test [1], the “HDAC6 selectivity (fold)” value stood at 67 fold. Further, the IC50 was determined as 182 nM in test [1] and 12200 nM in test [2].

With `CC(C)NC(=O)N1C[C@@H](C)N(Cc2ccc(C(=O)NO)cc2)[C@@H](C)C1` [Compound 103, (3R,5S)-4-(4-(hydroxycarbamoyl)benzyl)-N-isopropyl-3,5-dimethylpiperazine-1-carboxamide], in test [1], the “HDAC6 selectivity (fold)” value is listed as 15 fold and the IC50 worked out at 173 nM. Also, the IC50 in test [2] is 2600 nM.

Consider `C[C@@H]1CN(Cc2ccc(C(=O)NO)cc2)C[C@@H](C)N1C(=O)c1ccco1` [Compound 249, 4-(((3R,5R)-4-(furan-2-carbonyl)-3,5-dimethylpiperazin-1-yl)methyl)-N-hydroxybenzamide], for which, in test [1], the “HDAC6 selectivity (fold)” value was determined as 130 fold. The 50% inhibitory concentration (IC50) in test [1] stood at 120 nM; in test [2], 15600 nM.

For `C[C@@H]1CN(C(=O)c2ccccc2)C[C@H](C)N1Cc1ccc(C(=O)NO)cc1` [Compound 080, 4-(((2S,6R)-4-benzoyl-2,6-dimethylpiperazin-1-yl)methyl)-N-hydroxybenzamide], in test [1], the “HDAC6 selectivity (fold)” value is on record as 37 fold and the IC50 is 179 nM. Also, the IC50 in test [2] came to 6600 nM.
